# In patent publication US20250075248A1, “SYSTEMS, METHODS, AND DEVICES FOR ANTIMICROBIAL SUSCEPTIBILITY TESTING” (Deepull Diagnostics S.L., priority 2022, published 2025):
# How the values were obtained:
# Type in all cases: cell-based
# [1] = test system: Klebsiella pneumoniae ATCC13883; assay: Microscopy-based AST (MIC) from spiked blood tube sample after lysis, enrichment and immunomagnetic separation
# Procedure: First, Streptavidin coated beads were washed and immobilized. […] The typical binding capacity per mg (100 μL) of the magnetic beads used is approximately 20 μg of biotinylated antibody. After the coating, some washes with a phosphate saline buffer containing 0.01% of BSA (w/v) (adjusted pH 7.4) were performed. Finally, beads were resuspended to the desired concentration for the application. The antibody used was a biotin Klebsiella Polyclonal Antibody (PA1-73177, Invitrogen) and the magnetic beads used were Dynabeads MyOne Streptavidin T1 (65601, Thermofisher Scientific).
# Blood samples were prepared from a single large blood pool from donors collected in 10 mL EDTA blood tubes which was spiked with the appropriate amount of bacteria (Klebsiella pneumoniae ATCC13883) depending on the target inoculum (around 100 CFU/10 mL). After the pool was spiked, 10 mL were transferred to a previously labelled 15 mL tube containing a lysing agent (700 μL of Isolator BC0507C, Oxoid) and an immiscible fluorocarbon oil (20 μL of Fluorinert™ FC-40 F9755, Sigma-Aldrich). To lyse and concentrate, samples were incubated for a short period of time (30 seconds) under rotatory movement at low speed (10 rpm) and centrifugated at 12.000 g force for 5 minutes with a fixed angle rotor. The supernatant of each sample was discarded until 500 μL used to prepare the matrix for the enrichment step. […]
# For the immunomagnetic separation of the bacteria from the blood, 100 μL of antibody coated beads were added to each sample tube. […] These samples were also observed under an inverted fluorescence microscope in order to know the bacteria present in the sample and calculate the amount needed to perform the AST test, which was the next and last step in this end-to-end assay. 5 μL of each sample were transferred to a 384-well plate with a flat polystyrene film bottom and incubated with fluorescence dyes (SYBR Green and Propidium Iodide) during 10 min at room temperature in the dark. […]
# [2] = test system: Klebsiella pneumoniae ATCC13883; assay: Broth microdilution method MIC; settings: K. pneumoniae ATCC13883, read-out: MIC according to broth microdilution method
# [3] = test system: Staphylococcus aureus resistant (ATCC43300); assay: Microscopy-based AST (MIC) from liquid culture
# Procedure: (§1) The minimal inhibitory concentration was determined for two strains of Gram-positive bacteria Staphylococcus aureus, one susceptible (ATCC29213) and one resistant (ATCC43300) to erythromycin, according to embodiments described herein. […] Bacteria cultures were diluted in culture media (Mueller Hinton cation adjusted broth) and were incubated at a final concentration of 2×10^4 CFU/mL during 5 hours at 37° C. at different concentrations of […] in a final volume of 10 μL. S. aureus strain susceptible to erythromycin was tested at 1, 0.5, 0.25, 0.125, 0.06 and 0.03 mg/L, whereas resistant strain was tested at 4, 2, 1, 0.5, 0.25 and 0.125 mg/L of erythromycin. Three replicates were performed for each antibiotic concentration.
# (§2) Samples were analyzed at time 0 of incubation and after 5 hours incubation (with and without antibiotic). Samples were incubated with fluorescence dyes (SYBR Green and Propidium Iodide) during 10 minutes at room temperature in the dark. After dye incubation a sample of 1 μL was diluted with 4 μL of buffer (NaCl 0.9%) and transferred to a 384-well plate with flat polystyrene film bottom. The 384-well plate was centrifuged during 1 minute at 3000 g in a swinging-bucket movement and observed in an inverted fluorescence microscope. For each sample, a composite image covering the bottom of each well was constructed. Images were analyzed with a custom software to count bacteria, detect filamentous bacteria, counts red bacteria, and record the brightness of bacteria.
# (§3) Data obtained from images was used to perform a Graph either for S. aureus susceptible and resistant to erythromycin (FIGS. 25A and 25B, respectively).
# [4] = test system: Staphylococcus aureus susceptible (ATCC29213); assay: Microscopy-based AST (MIC) from liquid culture
# Procedure: as §1, §2, §3
# [5] = test system: Staphylococcus aureus susceptible (ATCC29213); assay: Broth microdilution method MIC; settings: S. aureus ATCC29213
# [6] = test system: Staphylococcus aureus resistant (ATCC43300); assay: Broth microdilution method MIC; settings: S. aureus ATCC43300
# [7] = test system: Klebsiella pneumoniae ATCC13883; assay: Microscopy-based AST (MIC) from spiked blood culture bottle after immunomagnetic separation
# Procedure: First, Streptavidin coated beads were washed and immobilized. The washing buffer and the immobilization process may be different depending on the application. […] The typical binding capacity per mg (100 μL) of magnetic beads used is approximately 20 μg of biotinylated antibody. After the coating, some washes were performed with a phosphate saline buffer containing 0.01% of BSA (w/v) (adjusted pH 7.4) and then beads were finally resuspended to the desired concentration for the application. The antibody used was a biotin Klebsiella Polyclonal Antibody (PA1-73177, Invitrogen) and the magnetic beads used were Dynabeads MyOne Streptavidin T1 (65601, Thermofisher Scientific).
# Blood samples were prepared from a previously mixed single large blood pool which was spiked with the appropriate amount of bacteria (Klebsiella pneumoniae ATCC13883) depending on the target inoculum (around 100 CFU). After the pool was spiked, 10 mL were transferred to a previously labelled blood culture system (442023, BD BACTEC™ Plus Aerobic/F) and mixed with an agitation platform (5 minutes at 150 rpm). […]
# The immunomagnetic separation of the bacteria was performed using a 15 mL tube containing 5 mL of a matrix extracted from a blood culture bottle and 100 μL of beads coated with anti-K. pneumoniae antibodies. […] The samples were also observed under an inverted fluorescence microscope in order to determine the number of bacteria present in the sample and calculate the adjustment needed to perform the AST test. 5 μL of each sample were transferred to a 384-well plate with flat polystyrene film bottom and incubated with fluorescence dyes (SYBR Green and Propidium Iodide) during 10 minutes at room temperature in the dark. The 384-well plate was centrifuged during 1 minute at 3000 g in a swinging-bucket centrifuge and observed in an inverted fluorescence microscope. […] Images were analyzed with a custom software to determine the number of bacteria. […]
# Samples were analyzed at time 0 of incubation and after 5 h incubation (with and without antibiotic). […]
# [8] = test system: Klebsiella pneumoniae (ATCC13883); assay: Microscopy-based AST (MIC) from liquid culture
# Procedure: Bacteria was grown in a liquid culture until an exponential phase in culture media. The cultures were diluted in culture media (Mueller Hinton cation adjusted broth) and was incubated at a final concentration of 2×10^4 CFU/mL during 5 hours at 37° C. at different concentrations of […] in a final volume of 10 μL. Gentamicin concentrations tested were 4, 2, 1, 0.5, 0.25 and 0.125 mg/L. Three replicates were performed for each antibiotic concentration.
# as §2, with “dye incubation,” for “dye incubation”, “bacteria. These images are illustrated in FIG. 23A” for “bacteria.”
# This graph is illustrated in FIG. 23B.
# [9] = test system: Klebsiella pneumoniae (IHMA1977064); assay: Microscopy-based AST (MIC) from liquid culture
# Procedure: The minimal inhibitory concentration was determined using embodiments disclosed herein for one strain of Gram-negative bacteria Klebsiella pneumoniae (IHMA1977064) with an MIC of 8 mg/L to meropenem according to the broth microdilution method. Bacteria was grown in liquid culture until an exponential phase in culture media. The cultures were diluted in culture media (Mueller Hinton cation adjusted broth) and was incubated at a final concentration of 2×10^4 CFU/mL during 5 hours at 37° C. at different concentrations of meropenem in a final volume of 10 μL. Meropenem concentrations tested were 32, 16, 8, 4, 2 and 1 mg/L […]. Three replicates were performed for each antibiotic concentration.
# Samples were analyzed at time 0 of incubation and after 5 hours incubation (with and without antibiotic). 5 μL of each sample were transferred to a 384-well plate with flat polystyrene film bottom and incubated with fluorescence dyes (SYBR Green and Propidium Iodide) during 10 minutes at room temperature in the dark. The 384-well plate was centrifuged during 1 minute at 3000 g in a swinging-bucket movement and observed in an inverted fluorescence microscope. For each sample, a composite image covering the bottom of each well was constructed. Images were analyzed with a custom software to count bacteria, detect filamentous bacteria, counts red bacteria, and record the brightness of bacteria. These images are illustrated in FIG. 24A.
# This graph is illustrated in FIG. 24B.
# [10] = test system: Klebsiella pneumoniae (IHMA1977064); assay: Broth microdilution method MIC; settings: K. pneumoniae IHMA1977064, read-out: MIC according to broth microdilution method
compound,measurement,setting,value
"O=C(O)c1cn(C2CC2)c2cc(N3CCNCC3)c(F)cc2c1=O [ciprofloxacin, Ciprofloxacin]",MIC,"[1]; Klebsiella pneumoniae, ATCC13883, 5 h",0.015 µg/mL
same,bacterial growth after 5 hours incubation,[1]; at 0.008 and 0.004 mg/L,growth
same,bacterial growth after 5 hours incubation,[1]; at a concentration ≥0.015 mg/L,did not grow
same,MIC,[2],0.03 µg/mL
"CC[C@H]1OC(=O)[C@H](C)[C@@H](O[C@H]2C[C@@](C)(OC)[C@@H](O)[C@H](C)O2)[C@H](C)[C@@H](O[C@@H]2O[C@H](C)C[C@H](N(C)C)[C@H]2O)[C@](C)(O)C[C@@H](C)C(=O)[C@H](C)[C@@H](O)[C@]1(C)O [erythromycin, Erythromycin]",MIC,"[3]; Staphylococcus aureus, S. aureus ATCC43300, 2×10^4 CFU/mL, 5 hours at 37° C., highest concentration tested 4 mg/L",≥ 4 µg/mL
same,bacterial growth after 5 hours incubation,[3]; at 4 mg/L and lower concentrations,showed growth
same,MIC,"[4]; Staphylococcus aureus, S. aureus ATCC29213, 2×10^4 CFU/mL, 5 hours at 37° C., image analysis",0.25 µg/mL
same,bacterial growth after 5 hours incubation,[4]; at 0.125 mg/L,showed growth
same,bacterial growth after 5 hours incubation,[4]; at a concentration ≥0.25 mg/L,did not grow
same,MIC,[5],0.25 to 0.5 µg/mL
same,MIC,[6],≥ 512 µg/mL
Gentamicin,bacterial growth after 5 hours incubation,[7]; at 0.125 and 0.06 mg/L,growth
same,bacterial growth after 5 hours incubation,[7]; at a concentration ≥0.25,did not grow
same,MIC,"[7]; blood culture bottle sample, 2×10^4 CFU/mL, 5 hours at 37° C., image analysis",0.25 µg/mL
same,bacterial growth after 5 hours incubation,[8]; at 0.125 mg/L,bacterial growth
same,bacterial growth after 5 hours incubation,[8]; at a concentration ≥0.25 mg/L,did not grow
same,MIC,"[8]; liquid culture, 2×10^4 CFU/mL, 5 hours at 37° C., image analysis",0.25 µg/mL
"C[C@@H](O)[C@H]1C(=O)N2C(C(=O)O)=C(S[C@@H]3CN[C@H](C(=O)N(C)C)C3)[C@H](C)[C@H]12 [meropenem, Meropenem]",MIC,"[9]; Klebsiella pneumoniae, liquid culture, 2×10^4 CFU/mL, 5 hours at 37° C., image analysis",4 µg/mL
same,bacterial growth after 5 hours incubation,[9]; at 2 and 1 mg/L,bacterial growth
same,bacterial growth after 5 hours incubation,[9]; at a concentration ≥4 mg/L,did not grow
same,MIC,[10],8 µg/mL
